Like-named read-outs stand apart in the source and are kept apart here.
Molecular target: T1, F508delCFTR (Homo sapiens, UniProt P13569, DEL508-508)
T1 construct: expressed in transfected cells; host or cells: CFBE41o- human lung derived epithelial cells (CFBE41o-F508delCFTR-HRP), doxycycline-inducible
Test: Cell Surface Expression-Horse Radish Peroxidase (CSE-HRP) Assay;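 for EC50 (with co-corrector): co-corrector chromenyl benzoic acid corrector at 2 or 3 µM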;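 for Maximum % activity (without co-corrector): % of on-plate positive control chromenyl benzoic acid corrector at 2 or 3 µM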
Format: cell-based
Details: for Maximum % activity (with co-corrector) / Emax: maximum at any tested concentration; for Emax: read-out: Maximum % activity (without co-corrector)
Outline: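 Corrector compounds were given as 8-point 3-fold series from 20 or 30 μM, with or without a 2 μM co-corrector, for 18-24 h at 33 °C. Surface HRP was read by luminol luminescence as % of positive control; variable-Hill-slope sigmoidal fitting gave EC50 from triplicate plates.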

[1] = test compound alone, without co-corrector, read-out: EC50 (without co-corrector)
[2] = with co-corrector, read-out: EC50 (with co-corrector)

T1 sequence (P13569 with tags, fused parts or gaps DEL508-508): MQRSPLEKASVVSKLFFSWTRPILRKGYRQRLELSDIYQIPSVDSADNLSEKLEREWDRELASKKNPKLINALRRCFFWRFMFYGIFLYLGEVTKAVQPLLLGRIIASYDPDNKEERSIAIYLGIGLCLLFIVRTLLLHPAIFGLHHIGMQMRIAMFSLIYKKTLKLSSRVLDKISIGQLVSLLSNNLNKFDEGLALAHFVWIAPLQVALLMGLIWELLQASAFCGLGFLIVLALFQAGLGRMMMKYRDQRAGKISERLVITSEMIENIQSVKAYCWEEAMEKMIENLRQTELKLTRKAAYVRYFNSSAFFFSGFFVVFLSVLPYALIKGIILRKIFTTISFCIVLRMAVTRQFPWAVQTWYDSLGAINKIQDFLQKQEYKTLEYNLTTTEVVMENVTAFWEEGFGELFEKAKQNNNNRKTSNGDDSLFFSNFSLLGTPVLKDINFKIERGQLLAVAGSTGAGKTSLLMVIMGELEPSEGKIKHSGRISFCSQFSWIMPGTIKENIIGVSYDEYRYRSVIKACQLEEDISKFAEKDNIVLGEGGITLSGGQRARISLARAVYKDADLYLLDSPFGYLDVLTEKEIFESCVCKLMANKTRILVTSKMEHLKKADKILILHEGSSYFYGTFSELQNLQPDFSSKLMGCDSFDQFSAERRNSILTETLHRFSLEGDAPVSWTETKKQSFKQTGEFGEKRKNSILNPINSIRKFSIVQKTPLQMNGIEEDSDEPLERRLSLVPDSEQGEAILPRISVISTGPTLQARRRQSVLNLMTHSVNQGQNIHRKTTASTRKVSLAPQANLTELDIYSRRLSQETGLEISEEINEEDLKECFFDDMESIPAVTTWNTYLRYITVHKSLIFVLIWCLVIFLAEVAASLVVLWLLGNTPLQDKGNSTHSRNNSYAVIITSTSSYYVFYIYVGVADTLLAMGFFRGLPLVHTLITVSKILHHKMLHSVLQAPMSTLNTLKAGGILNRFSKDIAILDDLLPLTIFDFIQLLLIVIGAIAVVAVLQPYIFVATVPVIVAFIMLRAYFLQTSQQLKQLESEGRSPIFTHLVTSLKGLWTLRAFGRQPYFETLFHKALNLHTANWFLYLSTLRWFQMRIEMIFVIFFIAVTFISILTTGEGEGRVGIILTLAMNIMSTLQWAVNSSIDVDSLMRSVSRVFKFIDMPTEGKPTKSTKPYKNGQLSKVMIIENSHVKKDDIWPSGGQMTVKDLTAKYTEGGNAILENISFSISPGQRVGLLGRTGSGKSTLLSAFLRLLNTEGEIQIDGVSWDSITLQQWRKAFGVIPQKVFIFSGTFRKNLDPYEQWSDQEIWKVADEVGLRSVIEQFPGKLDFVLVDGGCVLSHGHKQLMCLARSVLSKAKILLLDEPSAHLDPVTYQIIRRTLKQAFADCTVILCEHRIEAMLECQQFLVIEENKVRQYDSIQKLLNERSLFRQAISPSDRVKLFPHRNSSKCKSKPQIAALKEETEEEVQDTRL

Row | Structure (SMILES) | EC50 [1] [µM] | Maximum % activity (with co-corrector) (with co-corrector) | EC50 [2] [µM] | Emax (without co-corrector) [%]
1 | COc1ccc(C2CCC2)cc1C1(C(=O)NS(=O)(=O)c2cccc3c2ccn3C)CC1 [Example I-58, 1-(5-cyclobutyl-2-methoxyphenyl)-N-(1-methyl-1H-indole-4-sulfonyl)cyclopropane-1-carboxamide] | 3 to 10 | +++ (≥350) | < 3 | > 150
2 | COc1ccc(OC(F)F)cc1C1(C(=O)NS(=O)(=O)c2cccc3ncccc23)CC1 [Example I-65, 1-[5-(difluoromethoxy)-2-methoxyphenyl]-N-(quinoline-5-sulfonyl)cyclopropane-1-carboxamide] | 3 to 10 | +++ (≥350) | < 3 | > 150
3 | COc1ccc(C2CCC2)cc1C1(C(=O)NS(=O)(=O)c2cccc3nc(N)ccc23)CC1 [Example I-67, N-(2-aminoquinoline-5-sulfonyl)-1-(5-cyclobutyl-2-methoxyphenyl)cyclopropane-1-carboxamide] | 3 to 10 | +++ (≥350) | < 3 | > 150
4 | COc1ccc(C(C)(C)C)cc1C1(C(=O)NS(=O)(=O)c2cccc3nc(C)ccc23)CC1 [Example I-70, 1-(5-tert-butyl-2-methoxyphenyl)-N-(2-methylquinoline-5-sulfonyl)cyclopropane-1-carboxamide] | < 3 | +++ (≥350) | < 3 | > 150
5 | COc1ccc(C(C)C)cc1C1(C(=O)NS(=O)(=O)c2cccc3nc(C)ccc23)CC1 [Example I-71, 1-[2-methoxy-5-(propan-2-yl)phenyl]-N-(2-methylquinoline-5-sulfonyl)cyclopropane-1-carboxamide] | < 3 | +++ (≥350) | < 3 | > 150
6 | Cc1ccc2c(S(=O)(=O)NC(=O)C3(c4cc(C(F)(F)F)cnc4N(C)C)CC3)cccc2n1 [Example I-72, 1-[2-(dimethylamino)-5-(trifluoromethyl)pyridin-3-yl]-N-(2-methylquinoline-5-sulfonyl)cyclopropane-1-carboxamide] | 3 to 10 | +++ (≥350) | < 3 | > 150
7 | COCC1(c2ccc(OC)c(C3(C(=O)NS(=O)(=O)c4cccc5ncccc45)CC3)c2)CC1 [Example I-73, 1-{2-methoxy-5-[1-(methoxymethyl)cyclopropyl]phenyl}-N-(quinoline-5-sulfonyl)cyclopropane-1-carboxamide] | < 3 | +++ (≥350) | < 3 | > 150
8 | COCC1(c2ccc(OC)c(C3(C(=O)NS(=O)(=O)c4cccc5nc(C)ccc45)CC3)c2)CC1 [Example I-74, 1-{2-methoxy-5-[1-(methoxymethyl)cyclopropyl]phenyl}-N-(2-methylquinoline-5-sulfonyl)cyclopropane-1-carboxamide] | < 3 | +++ (≥350) | < 3 | > 150
9 | COc1nc2ccccc2cc1C1(C(=O)NS(=O)(=O)c2cccc3nc(C)ccc23)CC1 [Example I-75, 1-(2-methoxyquinolin-3-yl)-N-(2-methylquinoline-5-sulfonyl)cyclopropane-1-carboxamide] | 3 to 10 | +++ (≥350) | < 3 | > 150
10 | COc1nc2ccccc2cc1C1(C(=O)NS(=O)(=O)c2cccc3ncccc23)CC1 [Example I-76, 1-(2-methoxyquinolin-3-yl)-N-(quinoline-5-sulfonyl)cyclopropane-1-carboxamide] | 3 to 10 | +++ (≥350) | < 3 | > 150
11 | Cc1ccc(OC(C)C)c(C2(C(=O)NS(=O)(=O)c3cccc4ncccc34)CC2)c1 [Example I-77, 1-{5-methyl-2-[(propan-2-yl)oxy]phenyl}-N-(quinoline-5-sulfonyl)cyclopropane-1-carboxamide] | < 3 | +++ (≥350) | < 3 | > 150
12 | Cc1ccc(OC(C)C)c(C2(C(=O)NS(=O)(=O)c3cccc4nc(C)ccc34)CC2)c1 [Example I-78, 1-{5-methyl-2-[(propan-2-yl)oxy]phenyl}-N-(2-methylquinoline-5-sulfonyl)cyclopropane-1-carboxamide] | < 3 | +++ (≥350) | < 3 | > 150
13 | COc1ccc(C)cc1C1(C(=O)NS(=O)(=O)c2cccc3nc(N)ccc23)CC1 [Example I-79, N-(2-aminoquinoline-5-sulfonyl)-1-(2-methoxy-5-methylphenyl)cyclopropane-1-carboxamide] | < 3 | +++ (≥350) | < 3 | > 150
14 | COc1cc(C2CCC2)cc(OC)c1C1(C(=O)NS(=O)(=O)c2cccc3ncccc23)CC1 [Example I-80, 1-(4-cyclobutyl-2,6-dimethoxyphenyl)-N-(quinoline-5-sulfonyl)cyclopropane-1-carboxamide] | 3 to 10 | +++ (≥350) | < 3 | > 150

Second part, the molecule after the results:

Row | EC50 [1] [µM] | Maximum % activity (with co-corrector) (with co-corrector) | EC50 [2] [µM] | Emax (without co-corrector) [%] | Structure (SMILES)
15 | < 3 | +++ (≥350) | < 3 | > 150 | COc1ccc(C2CCC2)cc1C1(C(=O)NS(=O)(=O)c2cccc3[nH]ccc23)CC1 [Example I-55, 1-(5-cyclobutyl-2-methoxyphenyl)-N-(1H-indole-4-sulfonyl)cyclopropane-1-carboxamide]
16 | < 3 | +++ (≥350) | < 3 | > 150 | COc1ccc(C2CCC2)cc1C1(C(=O)NS(=O)(=O)c2cccc3[nH]ncc23)CC1 [Example I-56, 1-(5-cyclobutyl-2-methoxyphenyl)-N-(1H-indazole-4-sulfonyl)cyclopropane-1-carboxamide]
17 | < 3 | +++ (≥350) | < 3 | > 150 | CN(C)c1ncc(C(F)(F)F)cc1C1(C(=O)NS(=O)(=O)c2cccc3ncccc23)CC1 [Example I-57, 1-[2-(dimethylamino)-5-(trifluoromethyl)pyridin-3-yl]-N-(quinoline-5-sulfonyl)cyclopropane-1-carboxamide]
18 | < 3 | +++ (≥350) | < 3 | > 150 | COc1ccc(C2CCC2)cc1C1(C(=O)NS(=O)(=O)c2cccc3ccn(C)c23)CC1 [Example I-59, 1-(5-cyclobutyl-2-methoxyphenyl)-N-(1-methyl-1H-indole-7-sulfonyl)cyclopropane-1-carboxamide]
19 | < 3 | +++ (≥350) | < 3 | > 150 | COc1ccc(C2CCC2)cc1C1(C(=O)NS(=O)(=O)c2cccc3cnn(C)c23)CC1 [Example I-60, 1-(5-cyclobutyl-2-methoxyphenyl)-N-(1-methyl-1H-indazole-7-sulfonyl)cyclopropane-1-carboxamide]
20 | < 3 | +++ (≥350) | < 3 | > 150 | COc1ccc(C2CCC2)cc1C1(C(=O)NS(=O)(=O)c2cccn3nccc23)CC1 [Example I-61, 1-(5-cyclobutyl-2-methoxyphenyl)-N-(pyrazolo[1,5-a]pyridine-4-sulfonyl)cyclopropane-1-carboxamide]
21 | < 3 | +++ (≥350) | < 3 | > 150 | COc1ccc(C2CCC2)cc1C1(C(=O)NS(=O)(=O)c2cccc3ccc(C)nc23)CC1 [Example I-62, 1-(5-cyclobutyl-2-methoxyphenyl)-N-(2-methylquinoline-8-sulfonyl)cyclopropane-1-carboxamide]
22 | < 3 | +++ (≥350) | < 3 | > 150 | COc1ccc(C2CCC2)cc1C1(C(=O)NS(=O)(=O)c2cccc3nc(C)ccc23)CC1 [Example I-63, 1-(5-cyclobutyl-2-methoxyphenyl)-N-(2-methylquinoline-5-sulfonyl)cyclopropane-1-carboxamide]
23 | < 3 | +++ (≥350) | < 3 | > 150 | COc1ccc(C)cc1C1(C(=O)NS(=O)(=O)c2cccc3nc(C)ccc23)CC1 [Example I-64, 1-(2-methoxy-5-methylphenyl)-N-(2-methylquinoline-5-sulfonyl)cyclopropane-1-carboxamide]
24 | < 3 | +++ (≥350) | < 3 | > 150 | CCOc1cccc(OCC)c1C1(C(=O)NS(=O)(=O)c2cccc3ncccc23)CC1 [Example I-66, 1-(2,6-diethoxyphenyl)-N-(quinoline-5-sulfonyl)cyclopropane-1-carboxamide]
25 | < 3 | – | < 3 | – | COc1ccc(C2CC2)cc1C1(C(=O)NS(=O)(=O)c2cccc3nc(C)ccc23)CC1 [Example I-68, 1-(5-cyclopropyl-2-methoxyphenyl)-N-(2-methylquinoline-5-sulfonyl)cyclopropane-1-carboxamide]
26 | < 3 | +++ (≥350) | < 3 | > 150 | CCOc1ccc(OC)c(C2(C(=O)NS(=O)(=O)c3cccc4nc(C)ccc34)CC2)c1 [Example I-69, 1-(5-ethoxy-2-methoxyphenyl)-N-(2-methylquinoline-5-sulfonyl)cyclopropane-1-carboxamide]

Reference: patent US10829473B2, “Modulators of the cystic fibrosis transmembrane conductance regulator protein and methods of use” (AbbVie Overseas S.Á.R.L., priority 2017, dated 2020)
